The source of these data is patent US11452705B2, “Oral drug delivery composition containing oxaliplatin and method for preparing same” (ICURE BNP CO., LTD., priority 2017, dated 2022).

Series [1] deals with CT26 mouse colon tumor cells. As to the kind of experiment: In vivo tumor growth inhibition, CT26 tumor-bearing mice. Set-up: species or system BALB/c mice. The procedure:
The CT26 mouse colon tumor cells were subcutaneously grafted into the flanks of BALB/c mice at a concentration of 1×10^6 cells/100 μL of PBS (pH 7.4). […] During 18-day treatment, mice were fasted for 4 h before oral administration and 2 h after administration. Tumors were measured every three days in two dimensions using a caliper, and tumor volumes were calculated as a^2×b×0.52, where a=width and b=length. Body weight was also measured.
At 18 days after administration, the isolated tumors masses were measured, and tumor tissues were fixed in 10% formalin for histological evaluation. Staining with proliferating cell nuclear antigen (PCNA) for cell proliferation and fluorescent terminal deoxynucleotidyl transferase-mediated dUPT nick end labeling (TUNEL) for apoptosis were carried out.

Series [2] in a line: Artificial intestinal membrane permeability (PAMPA). The series is classed as in vitro ADME. The note with it: aqueous solution (control), PBS pH 6.8, 5 hours, room temperature. The procedure: Then, 200 μL was added to the donor of each well of the PAMPA plate, and 300 μL of buffer (PBS, pH 6.8) was added to each well of the receptor plate. The plate assembly was set by coupling the donor plate with the receiver plate. After 5 hours at room temperature, samples were withdrawn from donors and receptors in each well of the PAMPA plate, and the concentration was measured as follows.
The mobile phase consisted of water (pH 3.0 adjusted with phosphoric acid)-acetonitrile (99:1, v/v) and was run at a flow rate of 0.8 mL/min.
For 5-FU, injected into an HPLC system equipped with a C18 column (4.6×250 mm, 5 μm, 100 Δ; 20 μL injection), and were chromatographed using an isocratic mobile phase of deionized water (pH 3.2 adjusted with phosphoric acid) at a flow rate of 0.8 mL/min. The UV detection was carried out at 260 nm.
Effective permeability (Pe) of each drug was calculated using the following formula. Pe=−ln[1−CA(t)/Cequilibrium]/[A(1/VD+1/VA)×t]
(Pe: permeability (cm/s); A: Effective filter area (f×0.3 cm^2; f: Porosity of the filter (f=0.76)); VD: volume of the donor well (0.2 mL); VA: volume of Receptor well (0.3 mL); t: the total time of incubation in seconds (s); CA(t): concentration of drug in the receptor well at time t; Cequilibrium: [CD(t)×VD+CA(t)×VA]/(VD+VA); CD(t): concentration of residual drug in donor at time t)

Series [3] in a line: In vitro intestinal cell membrane permeability across Caco-2 cell monolayer. The series is classed as in vitro ADME. Particulars: human, Solution in HBSS (control), apical to basolateral, 37° C., read-out: Apparent permeability (Papp). (In general: Caco-2 monolayers are a common model of the intestinal barrier.)
Experimental: Caco-2 cells were seeded onto each well of 12-well Transwell® filter insert (pore size: 0.4 μm, surface area: 1.12 cm^2; Corning, N.Y., USA) at a density of 3×10^5 cells/well. Dulbecco's modified Eagle's medium (DMEM; Lonza, Basel, Switzerland) medium containing 10% fetal bovine serum (FBS; Gibco, Thermo Fisher Scientific) and 1% penicillin/streptomycin (Gibco) was changed every 48 hours for 21 to 29 days, and Caco-2 cell monolayers with a transepithelial electrical resistance (TEER) of >350 Ω·cm^2 were used for in vitro intestinal membrane permeability experiments.
First, the culture medium was removed and the monolayer was pre-incubated with 0.5 mL of Hanks' balanced salt solution (HBSS) for 20 min at 37° C. […] After processing the sample, 100-μL samples were taken from the basolateral compartment at 0.5, 1, 2, 3, 4, and 5 h. The samples were filtered through a membrane filter.
Series [4] can be described thus: Drug release (dissolution) test, USP type 1 apparatus (basket). Type of series: physicochemical. The note with it: pH 1.2, within 15 min. The procedure:
Dissolution tests were performed in 500 mL of medium containint 0.1 N HCl solution (pH 1.2) or phosphate buffer (pH 6.8) at 37±0.2° C., using the USP type 1 apparatus (basket) rotating at 100 rpm.
Each capsule was subjected to a dissolution test, and 1-mL samples were withdrawn at 15, 30, 45, 60, 90, and 120 min. After filtration, the amount of drug released was quantified by the HPLC using a UV detector, as in Example 7, and the results are shown in FIG. 6.

Series [5] in a line: In vivo oral absorption in rats, plasma 5-FU (HPLC). Particulars: rat. The procedure: (§1) After oral and intravenous administration, 200 μL of blood was collected from a capillary in the retro-orbital plexus at different time intervals and directly mixed with 50 μL of sodium citrate (3.8% solution). Blood samples were then immediately centrifuged (2,500×g, 15 minutes, 4° C.). The plasma samples were isolated and kept frozen at −70° C. until analysis.
To determine the plasma concentration of 5-FU, 100 μL of each standard and plasma samples were diluted with 50 μL of 20 μg/mL internal standard (IS, chlorouracil) and 100 μL of saturated ammonium sulfate solution. After vortexing for 1 min, the diluted plasma sample was extracted with a 2-mL solvent mixture of propanol and diethylether (80:20, v/v). The mixture was then centrifuged at 2,500×g for 10 min and the collected organic phase was evaporated under nitrogen at 37° C. The dried residues were reconstituted with 100 μL of mobile phase for HPLC analysis (ammonium phosphate buffer with pH 6.8/methanol, 98:2, v/v), followed by vortexing, and then determined by HPLC with a C8 column (4.6×250 mm, 5 μm) at a flow rate of 1 mL/min mobile phase. A 50-μL sample was injected and 5-FU was measured at 260 nm.

The nature of series [6]: In vivo oral absorption in rats, plasma OXA (Pt by AAS). The note with it: rat. The procedure: as §1
Before analysis, the sample was diluted with 10 mL of 3% nitric acid solution and then injected into the furnace for AAS analysis. All measurements were carried out using a Thermo Scientific iCE 3500 AAS (Thermo Fisher Scientific) equipped with a GFS35 graphite furnace and a GFS35Z autosampler. Argon was used as the purging gas at 200 mL/min, and the injection volume of the sample was 20 μL. The spectrometer was provided with a Zeeman-based background corrector, and the […].

Usually half-life stands for the time in which the quantity being followed falls by half. Read a low half-life as fast loss. As a reminder, the Cmax is the highest concentration seen after dosing. What is called Tmax is the time from dosing to the highest level.

Consider `O=c1[nH]cc(F)c(=O)[nH]1` [Composition 5-FU, 5-fluorouracil], for which, in series [1] (once daily oral 10 mg/kg 5-FU in water), the “Effect of inhibiting tumor growth compared with the group administered orally with the OXA/DCK aqueous solution” value is recorded as “did not show a significant difference”. Besides, the “Inhibition of tumor growth (tumor volume) compared to the control” value in series [1] (once daily oral, 18-day treatment, 10 mg/kg OXA and/or 10 mg/kg 5-FU) was 57.9%. For the same compound, the “Effective permeability (Pe)” value in series [2] was 1.27±0.46 ×10^−6 cm/s. The Papp A→B at 5 h, 384.4 μM in series [3] worked out at 3.46 ± 1.22 ×10⁻⁶ cm/s. Besides, in series [4], the “Drug released from the nanoemulsions” value is on record as “at least 85%”. The compound also had a half-life in series [5] (plasma, oral, 5-FU 20 mg/kg) of 48.8 ± 34 min. Further, in series [5] (intravenous, 5-FU 5 mg/kg), the AUCinf is 670 ± 221 ng·h/mL, the AUClast came out at 657 ± 220 ng·h/mL, the Cmax worked out at 716 ± 124 ng/mL and the T1/2 was found to be 45.6 ± 6.54 min. Besides, the Bioavailability in series [5] (intravenous, 5-FU 5 mg/kg (reference)) is on record as 100%. In series [5] (oral, 5-FU 20 mg/kg), the AUCinf stood at 287 ± 96 ng·h/mL, the AUClast was 242 ± 58 ng·h/mL, the Bioavailability is 9.218 ± 2.198% and the Cmax came to 92 ± 8 ng/mL. The Tmax in series [5] (oral, 5-FU 20 mg/kg) is 30 ± 0 min.
In series [6] (intravenous, OXA 5 mg/kg), `O=C([O-])C(=O)[O-].[NH-][C@@H]1CCCC[C@H]1[NH-].[Pt+4]` (relative stereo) [OXA, cis-[(1R,2R)-1,2-cyclohexanediamine-N,N′][oxalato(2-)-O,O′]platinum] displayed an AUCinf of 2537 ± 1312 ng·h/mL, an AUClast of 1962 ± 746 ng·h/mL, a Cmax of 2454 ± 990 ng/mL and a T1/2 of 186.2 ± 126.8 min. In series [6] (intravenous, OXA 5 mg/kg (reference)), the Bioavailability is on record as 100%. In addition, in series [6] (oral, OXA 10 mg/kg), the AUCinf was determined as 170 ± 61 ng·h/mL, the AUClast was 111 ± 95 ng·h/mL, the Bioavailability is 2.824 ± 2.428% and the Cmax turned out to be 32 ± 14 ng/mL. Besides, in series [6] (oral, OXA 10 mg/kg), the T1/2 worked out at 91.68 ± 54 min and the Tmax was found to be 110 ± 17.3 min. In addition, in series [2], the “Effective permeability (Pe)” value is 0.54±0.12 ×10^−6 cm/s.
